# Test results taken from paper PMC4226840, “An open-label study to determine the maximum tolerated dose of the multitargeted tyrosine kinase inhibitor CEP-11981 in patients with advanced cancer” (Investigational New Drugs, 2014).
# Test: Plasma pharmacokinetics in patients, single and multiple doses
# Type: in vivo, human
# Details: for Mean (SD) Robs (observed accumulation ratio): multiple doses, AUCτ day 15/AUC0–24 day 1
# Procedure: Pharmacokinetic parameters calculated after multiple doses included AUC0-t, Cmax, Tmax, and t½, and observed accumulation ratio (Robs). […] Pharmacodynamics was assessed by VEGFR-2/KDR inhibitory activity in response to CEP-11981 treatment. […] The venous blood samples for pharmacokinetic-pharmacodynamic analysis were collected on days 1 and 15 of dosing during cycle 1 immediately before dose administration and at 1 h postdose, and on day 43. At each draw, 2 samples were obtained in 6-mL sodium heparinized vacutainers. Plasma was obtained and stored at −70 °C until shipment to the sponsor for analysis.
# [1] = multiple doses (day 15, cycle 1), oral once daily, 3.0 mg/m^2, n = 3
# [2] = multiple doses (day 15, cycle 1), oral once daily, 4.2 mg/m^2, n = 3
# [3] = multiple doses (day 15, cycle 1), oral once daily, 5.9 mg/m^2, n = 5
# [4] = multiple doses (day 15, cycle 1), oral once daily, 11.8 mg/m^2, n = 3
# [5] = multiple doses (day 15, cycle 1), oral once daily, 19.7 mg/m^2, n = 3
# [6] = multiple doses (day 15, cycle 1), oral once daily, 29.6 mg/m^2, n = 4
# [7] = multiple doses (day 15, cycle 1), oral once daily, 41.4 mg/m^2, n = 3
# [8] = multiple doses (day 15, cycle 1), oral once daily, 55.0 mg/m^2, n = 4
# [9] = multiple doses (day 15, cycle 1), oral once daily, 73.0 mg/m^2, n = 3
# [10] = multiple doses (day 15, cycle 1), oral once daily, 126.6 mg/m^2, n = 2
substance,measurement,setting,value
"11-(2-methylpropyl)-12,13-dihydro-2-methyl-8-(pyrimidin-2-ylamino)-4H-indazolo[5,4-a]pyrrolo[3,4-c]carbazol-4-one [CEP-11981]",Mean (SD) AUC0-24,"human, in vivo, po, 97.4 mg/m2","5,320.4 (1,459.11) ng•hr/mL"
same,Mean (SD) Cmax,"human, in vivo, po, 97.4 mg/m2",526.4 (185.68) ng/mL
same,Mean (SD) t½,"human, in vivo, po, 97.4 mg/m2",10.3 (4.59) hr
same,Median (range) Tmax,"human, in vivo, po, 97.4 mg/m2",4.0 (2.0–6.0) hr
same,Mean (SD) AUCτ,[1],165.3 (82.98) ng•hr/mL
same,Mean (SD) Cmax,[1],16.1 (2.35) ng/mL
same,Mean (SD) t½,[1],8.0 (2.92) hr
same,Median (range) Tmax,[1],2.9 (1.5–4.0) hr
same,Mean (SD) AUCτ,[2],201.7 (46.72) ng•hr/mL
same,Mean (SD) Cmax,[2],24.3 (9.23) ng/mL
same,Mean (SD) t½,[2],9.9 (4.55) hr
same,Median (range) Tmax,[2],3.9 (1.5–4.0) hr
same,Mean (SD) AUCτ,[3],278.0 (69.45) ng•hr/mL
same,Mean (SD) Cmax,[3],32.4 (8.40) ng/mL
same,Mean (SD) t½,[3],6.6 (1.51) hr
same,Median (range) Tmax,[3],3.0 (1.3–6.0) hr
same,Mean (SD) AUCτ,[4],763.7 (128.14) ng•hr/mL
same,Mean (SD) Cmax,[4],98.1 (5.64) ng/mL
same,Mean (SD) t½,[4],12.3 (9.70) hr
same,Median (range) Tmax,[4],2.0 (1.6–2.1) hr
same,Mean (SD) AUCτ,[5],"1,102.3 (734.79) ng•hr/mL"
same,Mean (SD) Cmax,[5],128.5 (98.34) ng/mL
same,Mean (SD) t½,[5],5.4 (1.20) hr
same,Median (range) Tmax,[5],4.0 (1.5–4.0) hr
same,Mean (SD) AUCτ,[6],"2,923.5 (2,939.79) ng•hr/mL"
same,Mean (SD) Cmax,[6],218.8 (130.35) ng/mL
same,Mean (SD) t½,[6],8.7 (5.74) hr
same,Median (range) Tmax,[6],4.5 (2.0–8.0) hr
same,Mean (SD) AUCτ,[7],"3,256.0 (1,816.44) ng•hr/mL"
same,Mean (SD) Cmax,[7],412.6 (93.94) ng/mL
same,Mean (SD) t½,[7],10.3 (6.33) hr
same,Median (range) Tmax,[7],2.1 (1.7–3.1) hr
same,Mean (SD) AUCτ,[8],"4,313.3 (1,091.33) ng•hr/mL"
same,Mean (SD) Cmax,[8],320.7 (75.09) ng/mL
same,Mean (SD) t½,[8],12.8 (4.32) hr
same,Median (range) Tmax,[8],5.2 (3.0–8.0) hr
same,Mean (SD) AUCτ,[9],"9,429.0 (3,993.74) ng•hr/mL"
same,Mean (SD) Cmax,[9],713.0 (30.38) ng/mL
same,Mean (SD) t½,[9],13.9 (9.48) hr
same,Median (range) Tmax,[9],3.3 (3.1–3.5) hr
same,Mean (SD) AUCτ,[10],"23,565.0 (0) ng•hr/mL"
same,Mean (SD) Cmax,[10],"1,481.5 (0) ng/mL"
same,Mean (SD) t½,[10],14.7 (0) hr
same,Median (range) Tmax,[10],8.0 (8.0–8.0) hr
same,Mean (SD) Robs (observed accumulation ratio),"oral once daily, 3.0 mg/m^2, n = 3",1.3 (0.62)
same,Mean (SD) Robs (observed accumulation ratio),"oral once daily, 4.2 mg/m^2, n = 3",1.8 (0.64)
same,Mean (SD) Robs (observed accumulation ratio),"oral once daily, 5.9 mg/m^2, n = 5",1.5 (0.59)
same,Mean (SD) Robs (observed accumulation ratio),"oral once daily, 11.8 mg/m^2, n = 3",1.5 (0.15)
same,Mean (SD) Robs (observed accumulation ratio),"oral once daily, 19.7 mg/m^2, n = 3",1.2 (0.29)
same,Mean (SD) Robs (observed accumulation ratio),"oral once daily, 29.6 mg/m^2, n = 4",1.1 (1.24)
same,Mean (SD) Robs (observed accumulation ratio),"oral once daily, 41.4 mg/m^2, n = 3",1.3 (0.46)
same,Mean (SD) Robs (observed accumulation ratio),"oral once daily, 55.0 mg/m^2, n = 4",1.9 (0.19)
same,Mean (SD) Robs (observed accumulation ratio),"oral once daily, 73.0 mg/m^2, n = 3",1.9 (0.14)
